Reference: ChEMBL document CHEMBL2375281, “Exploring the UDP pocket of LpxC through amino acid analogs” (Bioorg Med Chem Lett, 2013)

Experiment: Lipophilicity, log D of the compound
Format: physicochemical
Conditions: octanol/water

| logD | SMILES |
| --- | --- |
| > 3 | O=C(N[C@@H](C(=O)NO)c1ccccc1)c1ccc(C#Cc2ccccc2)cc1 |
| 1 | NC(=O)C[C@H](NC(=O)c1ccc(C#Cc2ccccc2)cc1)C(=O)NO |
| 2 | O=C(C[C@H](NC(=O)c1ccc(C#Cc2ccccc2)cc1)C(=O)NO)NCCCO |
| 2 | COCCNC(=O)C[C@H](NC(=O)c1ccc(C#Cc2ccccc2)cc1)C(=O)NO |
| 3 | C#CCNC(=O)C[C@H](NC(=O)c1ccc(C#Cc2ccccc2)cc1)C(=O)NO |
| > 3 | O=C(NC1(C(=O)NO)CCC1)c1ccc(C#Cc2ccccc2)cc1 |
| > 3 | O=C(NC1(C(=O)NO)CCCCC1)c1ccc(C#Cc2ccccc2)cc1 |
| > 4 | O=C(NC1(C(=O)NO)CCOCC1)c1ccc(C#Cc2ccccc2)cc1 |
| > 3 | O=C(NC1(C(=O)NO)CCSCC1)c1ccc(C#Cc2ccccc2)cc1 |
| 3 | O=C(NC1(C(=O)NO)CCS(=O)(=O)CC1)c1ccc(C#Cc2ccccc2)cc1 |
| 3 | O=C(NC1(C(=O)NO)CCNCC1)c1ccc(C#Cc2ccccc2)cc1 |
| > 3 | O=C(NC1(C(=O)NO)CCN(Cc2ccccc2)CC1)c1ccc(C#Cc2ccccc2)cc1 |
| 2 | C[C@H](O)[C@H](NC(=O)c1ccc(C#Cc2ccccc2)cc1)C(=O)NO |
| 3 | O=C(CNC(=O)c1ccc(C#Cc2ccccc2)cc1)NO |
| 3 | CC(C)(NC(=O)c1ccc(C#Cc2ccccc2)cc1)C(=O)NO |
| 2 | O=C(N[C@@H](CO)C(=O)NO)c1ccc(C#Cc2ccccc2)cc1 |
| 2 | O=C(N[C@H](CO)C(=O)NO)c1ccc(C#Cc2ccccc2)cc1 |
| 2 | NC[C@H](NC(=O)c1ccc(C#Cc2ccccc2)cc1)C(=O)NO |
| 3 | CSC[C@H](NC(=O)c1ccc(C#Cc2ccccc2)cc1)C(=O)NO |
| 2 | CS(=O)(=O)C[C@H](NC(=O)c1ccc(C#Cc2ccccc2)cc1)C(=O)NO |
| 3 | O=C(N[C@H](C(=O)NO)c1ccccc1)c1ccc(C#Cc2ccccc2)cc1 |
| > 3 | CC(NC(=O)c1ccc(C#Cc2ccccc2)cc1)C(=O)NO (racemic) |
| > 3 | CC(C)C(NC(=O)c1ccc(C#Cc2ccccc2)cc1)C(=O)NO (racemic) |
